# Measurements from patent US9738599B2, “Thromboxane receptor antagonists” (UNIVERSITY COLLEGE DUBLIN, NATIONAL UNIVERSITY OF IRELAND, …, priority 2012, dated 2017).
# System: human platelets
# Assay: U46619-induced human platelet aggregation ex vivo in platelet rich plasma
# Format: cell-based
# Conditions: fold less potent than TP20
# Source text: A modification of the turbidimetric method originally developed by Born & Cross (Born, G. V. and Cross, M. J., The Aggregation of Blood Platelets, J Physiol, 1963, 168:178-95) is used. The principle is based on the diffraction of the light by particles. When a light beam passes through a suspension of particles, it is diffracted, depending on the number and the size of the particles in suspension.
# In the Born & Cross method, a light beam passes through a platelet suspension and the quantity of light is measured by a detector placed after the sample. Upon platelet aggregation, the size of platelet aggregates will increase while the total number of free platelets will decrease. Consequently, less light will be diffracted and the detector will record an increase in light intensity. The aggregometer has been developed based on these concepts. Variations in light transmission recorded by this device reflects the platelet physiology. When an agonist of platelet aggregation is added to a platelet suspension, platelets undergo activation and shape change. […]
# Light transmission (T) is measured throughout all the experiment, which is ended 8 minutes after induction of aggregation. Maximal light transmission (Tmax) is determined in the sample without drugs. Minimal light transmission (Tmin) is measured in PRP without inducer. […]
structure (smiles),measurement,value
"COc1ccc(-c2cccc(Oc3ccc(C#N)cc3S(=O)(=O)NC(=O)NC(C)(C)C)c2)cc1 [NTP4, N-(tert-butylcarbamoyl)-5-cyano-2-((4′-methoxy-[1,1′-biphenyl]-3-yl)oxy)benzenesulfonamide]","Potency relative to TP20, inhibition of U46619-mediated platelet aggregation",approx. ten-fold
